Experiment: Solubility of the peptide pamoate in water
Assay type: physicochemical
Conditions: in H2O at 40° C.
Procedure: (pyro)Glu-His-Trp-Ser-Tyr-D-Trp-Leu-Arg-Pro-Gly-NH2 were converted into the corresponding pamoate, using conventional techniques. After comminution, this salt appears as formed of microparticles of an amorphous structure with an average particle size of approximately 10 microns. Solubility: lesser than 0.025 mg/ml in H2 O at 40° C.

CC(C)C[C@H](NC(=O)[C@@H](Cc1c[nH]c2ccccc12)NC(=O)[C@H](Cc1ccc(O)cc1)NC(=O)[C@H](CO)NC(=O)[C@H](Cc1c[nH]c2ccccc12)NC(=O)[C@H](Cc1c[nH]cn1)NC(=O)[C@@H]1CCC(=O)N1)C(=O)N[C@@H](CCCNC(=N)N)C(=O)N1CCC[C@H]1C(=O)NCC(N)=O [pamoate of D-Trp6-LHRH, (pyro)Glu-His-Trp-Ser-Tyr-D-Trp-Leu-Arg-Pro-Gly-NH2]
solubility: < 25 µg/mL
